# According to patent US20210276977A1, “BICYCLIC INHIBITORS OF HISTONE DEACETYLASE” (Alkermes, Inc., priority 2018, published 2021):
# pIC50: −log10 of the molar value.
# Tests used:
# [1] = target: T1, HDAC2 (Homo sapiens, UniProt Q92769); experiment: HDAC2 Enzymatic Inhibition Assay in SH-SY5Y Cell Lysate with an Exogenous Substrate (HDAC-Glo 2); assay type: cell-based; conditions: for pIC50: SH-SY5Y cells
# T1 construct: host or cells: SH-SY5Y cells
# Protocol: HDAC2 Enzymatic Inhibition Assay in SH-SY5Y Cell Lysate with an Exogenous Substrate
# SH-SY5Y cells (Sigma) were cultured in Eagle's Modified Essential Medium supplemented with 10% fetal bovine serum and pen/strep. Twenty-four hours prior to compound dosing 20 uL of cells were plated in white 384 well plates at a density of 1,500 cells/well. Compounds were serially diluted in neat DMSO and then diluted 1:100 v/v into media without FBS and mixed. Media was removed from the plated cells and the diluted compounds in serum free media (1% v/v final DMSO) were added and incubated at 37° C. for five hours. Ten uL of HDAC-Glo 2 reagent with 0.1% Triton X-100 was then added, the plate was mixed and allowed to develop at room temperature for 100 minutes. Plates were then read with a Spectramax LMax luminometer employing a 0.4 s integration time. Dose response curves were constructed with normalized data where CI-994 at 100 uM was defined as 100% inhibition and DMSO alone as 0% inhibition.
# (§1) In the table, “A” indicates a IC50 value of less than 0.5 μM; “B” a IC50 value from 0.5 μM to 1.0 μM; “C” a IC50 value of greater than 1.0 μM and less than or equal to 2.0 μM; and “D” indicates an IC50 value of greater than 2.0 μM. NT=Not Tested.
# [2] = target: T2, Full length Human HDAC1 (Homo sapiens, UniProt Q13547); experiment: HDAC1 enzymatic assay (deacetylation of FAM-labeled peptide substrate, microfluidic electrophoresis); assay type: biochemical; conditions: for pIC50: recombinant enzymatic assay
# T2 construct: Full length Human HDAC1; His (C); FLAG (C); host or cells: baculovirus expression system
# Protocol: (§2) HDAC2 and HDAC1 Enzymatic Assay (HDAC2 and HDAC1 IC50 Data)
# (§3) The following describes an assay protocol for measuring the deacetylation of a peptide substrate by HDAC2 or HDAC1.
# (§4) HD AC protein composition and respective substrate peptides are summarized below.
# (§5) HD AC reactions are assembled in 384 well plates (Greiner) in a total volume of 20 μL as following:
# (§6) HDAC proteins are pre-diluted in the assay buffer comprising: 100 mM HEPES, pH 7.5, 0.1% BSA, 0.01% Triton X-100, 25 mM KCl and dispensed into 384 well plate (10 uL per well).
# (§7) Test compounds are serially pre-diluted in DMSO and added to the protein samples by acoustic dispensing (Labcyte Echo). Concentration of DMSO is equalized to 1% in all samples.
# (§8) Control samples (0%-inhibition in the absence of inhibitor, DMSO only) and 100%-inhibition (in the absence of enzyme) are assembled in replicates of four and used to calculate the %-inhibition in the presence of compounds.
# (§9) At this step compounds can be pre-incubated with enzyme if desired.
# (§10) The reactions are initiated by addition of 10 uL of the FAM-labeled substrate peptide pre-diluted in the same assay buffer. Final concentration of substrate peptide is 1 uM (HDAC1-2).
# (§11) The reactions are allowed to proceed at room temperature. Following incubation, the reactions are quenched by addition of 50 μL of termination buffer (100 mM HEPES, pH7.5, 0.01% Triton X-100, 0.1% SDS). Terminated plates are analyzed on a microfluidic electrophoresis instrument (Caliper LabChip® 3000, Caliper Life Sciences/Perkin Elmer) which enables electrophoretic separation of de-acetylated product from acetylated substrate. A change in the relative intensity of the peptide substrate and product is the parameter measured. Activity in each test sample is determined as the product to sum ratio (PSR): P/(S+P), where P is the peak height of the product, and S is the peak height of the substrate. Percent inhibition (Pinh) is determined using the following equation: Pinh=(PSR0% inh−PSRcompound)/(PSR0% inh−PSR100% inh)*100, in which: PSRcompound is the product/sum ratio in the presence of compound, PSR0% inh is the product/sum ratio in the absence of compound and the PSR100% inh is the product/sum ratio in the absence of the enzyme. To determine IC50 of compounds (50%-inhibition) the %-inh data (Pinh versus compound concentration) are fit by a 4 parameter sigmoid dose-response model using XLfit software (IDBS).
# as §1
# [3] = target: T3, Full length Human HDAC2 (Homo sapiens, UniProt Q92769); experiment: HDAC2 enzymatic assay (deacetylation of FAM-labeled peptide substrate, microfluidic electrophoresis); assay type: biochemical; conditions: for pIC50: recombinant enzymatic assay
# T3 construct: Full length Human HDAC2; FLAG (C); host or cells: baculovirus expression system
# Protocol: as §2, §3, §4, §5, §6, §7, §8, §9, §10, §11, §1
# [4] = five hours incubation, Table 3, class symbols
# [5] = versus matched Comparator with heteroaromatic ring directly linked to azetidine
# T3 sequence (Q92769 whole entry): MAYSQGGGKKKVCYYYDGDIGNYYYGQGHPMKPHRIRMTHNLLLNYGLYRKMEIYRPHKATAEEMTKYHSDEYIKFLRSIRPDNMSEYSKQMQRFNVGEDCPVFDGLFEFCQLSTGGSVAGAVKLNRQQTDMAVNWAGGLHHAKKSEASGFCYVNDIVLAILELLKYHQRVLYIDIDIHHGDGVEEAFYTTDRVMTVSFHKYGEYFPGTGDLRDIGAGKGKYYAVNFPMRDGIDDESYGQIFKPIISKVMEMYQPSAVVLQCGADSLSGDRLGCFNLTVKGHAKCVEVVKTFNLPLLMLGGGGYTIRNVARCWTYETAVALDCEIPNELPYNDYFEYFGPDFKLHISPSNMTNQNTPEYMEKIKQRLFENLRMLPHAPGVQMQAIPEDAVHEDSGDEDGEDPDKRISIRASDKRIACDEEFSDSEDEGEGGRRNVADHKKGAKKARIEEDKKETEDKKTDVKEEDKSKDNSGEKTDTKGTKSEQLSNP
# T1 sequence (Q92769 whole entry): as above
# T2 sequence (Q13547 whole entry): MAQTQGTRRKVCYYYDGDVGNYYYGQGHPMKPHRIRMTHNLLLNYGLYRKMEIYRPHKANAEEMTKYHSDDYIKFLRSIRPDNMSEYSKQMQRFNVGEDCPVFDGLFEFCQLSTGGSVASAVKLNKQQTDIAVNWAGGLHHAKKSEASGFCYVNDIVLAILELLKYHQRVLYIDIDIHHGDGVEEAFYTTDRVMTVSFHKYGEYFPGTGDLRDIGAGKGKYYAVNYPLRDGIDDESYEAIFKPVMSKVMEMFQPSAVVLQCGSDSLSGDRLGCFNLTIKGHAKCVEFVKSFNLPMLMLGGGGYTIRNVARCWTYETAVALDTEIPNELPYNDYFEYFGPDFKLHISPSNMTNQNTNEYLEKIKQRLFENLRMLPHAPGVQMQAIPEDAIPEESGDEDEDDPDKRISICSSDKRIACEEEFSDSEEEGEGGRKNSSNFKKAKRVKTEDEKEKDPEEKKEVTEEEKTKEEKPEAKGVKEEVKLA
Structure (SMILES),"pIC50 [1, 4]","pIC50 ([2]; Table 2, class symbols)","pIC50 ([3]; Table 2, class symbols)",further results
"Nc1ccc(-c2ccc(F)cc2F)nc1NC(=O)N1CC(c2ncccn2)C1 [Comparator A, reference compound]",,,,"pIC50 ([1]; Table 4, numeric): < 4.28; pIC50 ([2]; Table 4, numeric): 5.34; pIC50 ([3]; Table 4, numeric): 5.28"
"Cc1ncc(C2CN(C(=O)Nc3nc(-c4ccc(F)cc4F)ccc3N)C2)cn1 [Comparator B, reference compound]",,,,"pIC50 ([1]; Table 4, numeric): 4.52; pIC50 ([2]; Table 4, numeric): < 4.52; pIC50 ([3]; Table 4, numeric): < 4.52"
"Cc1cnc(C2CN(C(=O)Nc3nc(-c4ccc(F)cc4F)ccc3N)C2)cn1 [Comparator C, reference compound]",,,,"pIC50 ([1]; Table 4, numeric): 5.01; pIC50 ([2]; Table 4, numeric): 4.86; pIC50 ([3]; Table 4, numeric): 4.87"
Nc1ccc(-c2ccc(F)cc2F)nc1NC(=O)N1CC(Cc2ncccn2)C1 [Compound 1],> 6.30,> 6.30,6.00 to 6.30,"pIC50 ([1]; Table 4, numeric): 6.30; fold more potent in the SH-SY5Y cell assay than the corresponding comparator without spacer X [1, 5]: 100 fold; pIC50 ([2]; Table 4, numeric): 6.34; fold more potent in the HDAC1 recombinant enzymatic assay than the corresponding comparator without spacer X [2, 5]: 10 fold; pIC50 ([3]; Table 4, numeric): 6.15; fold more potent in the HDAC2 recombinant enzymatic assay than the corresponding comparator without spacer X [3, 5]: > 7 fold"
Nc1ccc(-c2ccc(F)cc2F)nc1NC(=O)N1CC(Cc2ccccn2)C1 [Compound 2],5.70 to 6.00,> 6.30,6.00 to 6.30,
Nc1ccc(-c2ccc(F)cc2F)nc1NC(=O)N1CC(Cc2cccnc2)C1 [Compound 3],5.70 to 6.00,6.00 to 6.30,5.70 to 6.00,
Nc1ccc(-c2ccc(F)cc2F)nc1NC(=O)N1CC(Cc2ccncc2)C1 [Compound 4],5.70 to 6.00,< 5.70,< 5.70,
Cc1ccc(CC2CN(C(=O)Nc3nc(-c4ccc(F)cc4F)ccc3N)C2)cn1 [Compound 5],< 5.70,5.70 to 6.00,5.70 to 6.00,
Cc1ncc(CC2CN(C(=O)Nc3nc(-c4ccc(F)cc4F)ccc3N)C2)cn1 [Compound 6],5.70 to 6.00,< 5.70,< 5.70,"pIC50 ([1]; Table 4, numeric): 5.81; pIC50 ([2]; Table 4, numeric): 5.65; pIC50 ([3]; Table 4, numeric): 5.55"
Cc1cnc(CC2CN(C(=O)Nc3nc(-c4ccc(F)cc4F)ccc3N)C2)nc1 [Compound 7],5.70 to 6.00,< 5.70,< 5.70,
Nc1ccc(-c2ccc(F)cc2F)nc1NC(=O)N1CC(Cc2ccn3cncc3c2)C1 [Compound 8],< 5.70,,,
COCc1ccc(CC2CN(C(=O)Nc3nc(-c4ccc(F)cc4F)ccc3N)C2)cn1 [Compound 9],< 5.70,5.70 to 6.00,< 5.70,
Cc1cc(CC2CN(C(=O)Nc3nc(-c4ccc(F)cc4F)ccc3N)C2)nc(C)n1 [Compound 10],< 5.70,,,
Cc1ccnc(CC2CN(C(=O)Nc3nc(-c4ccc(F)cc4F)ccc3N)C2)n1 [Compound 11],6.00 to 6.30,6.00 to 6.30,6.00 to 6.30,
Nc1ccc(-c2ccc(F)cc2F)nc1NC(=O)N1CC(Cc2cnccn2)C1 [Compound 12],5.70 to 6.00,6.00 to 6.30,6.00 to 6.30,
Cc1cncc(CC2CN(C(=O)Nc3nc(-c4ccc(F)cc4F)ccc3N)C2)n1 [Compound 13],5.70 to 6.00,5.70 to 6.00,5.70 to 6.00,
Cc1cnc(CC2CN(C(=O)Nc3nc(-c4ccc(F)cc4F)ccc3N)C2)cn1 [Compound 14],6.00 to 6.30,> 6.30,6.00 to 6.30,"pIC50 ([1]; Table 4, numeric): 6.16; pIC50 ([2]; Table 4, numeric): 6.39; pIC50 ([3]; Table 4, numeric): 6.23"
Cc1nccc(CC2CN(C(=O)Nc3nc(-c4ccc(F)cc4F)ccc3N)C2)n1 [Compound 15],< 5.70,< 5.70,< 5.70,
Cc1nccnc1CC1CN(C(=O)Nc2nc(-c3ccc(F)cc3F)ccc2N)C1 [Compound 16],6.00 to 6.30,6.00 to 6.30,5.70 to 6.00,
COCc1cccc(CC2CN(C(=O)Nc3nc(-c4ccc(F)cc4F)ccc3N)C2)n1 [Compound 17],< 5.70,,,
COCc1cc(CC2CN(C(=O)Nc3nc(-c4ccc(F)cc4F)ccc3N)C2)ccn1 [Compound 18],< 5.70,,,
Cc1cc(CC2CN(C(=O)Nc3nc(-c4ccc(F)cc4F)ccc3N)C2)ncn1 [Compound 19],6.00 to 6.30,5.70 to 6.00,5.70 to 6.00,
Nc1ccc(-c2ccc(F)cc2F)nc1NC(=O)N1CC(Cc2cncnc2)C1 [Compound 20],< 5.70,,,
